The text below walks through data of ChEMBL document CHEMBL2439955, “Synthesis and biological evaluation of 5-carbamoyl-2-phenylpyrimidine derivatives as novel and potent PDE4 inhibitors” (Bioorg Med Chem, 2013).

The subject of one data set is Splenocyte. The data set is described as follows: Inhibition of LPS-induced TNFalpha production in Balb/c mouse splenocytes after 18 to 24 hrs by AlphaLISA assay. Type of data set: functional, cell-based.
For data set [1], the target named is T1, 3',5'-cyclic-AMP phosphodiesterase 4B (Homo sapiens, UniProt Q07343). Description: Inhibition of recombinant human PDE4B using cAMP as substrate after 30 mins.
Data set [2] addresses T1, 3',5'-cyclic-AMP phosphodiesterase 4B. The data set is described as follows: Inhibition of recombinant human PDE4B using cAMP as substrate at 3 uM after 30 mins.
The target is the same in data set [3]. The data set is described as follows: Inhibition of recombinant human PDE4B using cAMP as substrate at 10 uM after 30 mins.
Data set [4] has as its system Mus musculus. The data set is described as follows: Inhibition of LPS-induced pulmonary neutrophilia in BALB/c mouse assessed as reduction of neutrophils level in bronchoalveolar lavage fluid at 1 mg/kg administered intratracheally 30 mins before LPS challenge measured after 4 to 5 hrs. To be noted: route endotracheal. Type of data set: functional.
Data set [5] in a line: Cmax in mouse at 10 mg/kg, ip. Type of data set: ADME, organism-based. On the set-up: dose 10 mg/kg, route intraperitoneal. Conditions: in vivo.
Data set [6] can be described thus: Terminal half life in mouse at 10 mg/kg, ip. Type of data set: ADME, organism-based. On the set-up: dose 10 mg/kg, route intraperitoneal. Conditions: in vivo, read-out: beta t1/2 (converted).
Data set [7] is described as follows: AUC in mouse at 10 mg/kg, ip. It is filed as ADME, organism-based. Also noted: dose 10 mg/kg, route intraperitoneal. Conditions: plasma.
Data set [8] relates to Mus musculus. The data set is described as follows: Inhibition of LPS-induced pulmonary neutrophilia in ip dosed BALB/c mouse assessed as reduction of neutrophils level in bronchoalveolar lavage fluid administered 30 mins before LPS challenge measured after 4 to 5 hrs. It is filed as functional. Conditions: read-out: ID50 (the source's name).
Data set [9] can be described thus: Metabolic stability of the compound in mouse liver microsomes after 30 mins. Conditions: read-out: Stability. Type of data set: ADME, Microsome.
Data set [10] can be described thus: Octanol-phosphate buffered saline distribution coefficient, log D of the compound at pH 7.4. Type of data set: physicochemical.
The target of data set [11] is T1, 3',5'-cyclic-AMP phosphodiesterase 4B. Description: Inhibition of recombinant human PDE4B using cAMP as substrate at 1 uM after 30 mins.

T1 sequence (Q07343 whole entry): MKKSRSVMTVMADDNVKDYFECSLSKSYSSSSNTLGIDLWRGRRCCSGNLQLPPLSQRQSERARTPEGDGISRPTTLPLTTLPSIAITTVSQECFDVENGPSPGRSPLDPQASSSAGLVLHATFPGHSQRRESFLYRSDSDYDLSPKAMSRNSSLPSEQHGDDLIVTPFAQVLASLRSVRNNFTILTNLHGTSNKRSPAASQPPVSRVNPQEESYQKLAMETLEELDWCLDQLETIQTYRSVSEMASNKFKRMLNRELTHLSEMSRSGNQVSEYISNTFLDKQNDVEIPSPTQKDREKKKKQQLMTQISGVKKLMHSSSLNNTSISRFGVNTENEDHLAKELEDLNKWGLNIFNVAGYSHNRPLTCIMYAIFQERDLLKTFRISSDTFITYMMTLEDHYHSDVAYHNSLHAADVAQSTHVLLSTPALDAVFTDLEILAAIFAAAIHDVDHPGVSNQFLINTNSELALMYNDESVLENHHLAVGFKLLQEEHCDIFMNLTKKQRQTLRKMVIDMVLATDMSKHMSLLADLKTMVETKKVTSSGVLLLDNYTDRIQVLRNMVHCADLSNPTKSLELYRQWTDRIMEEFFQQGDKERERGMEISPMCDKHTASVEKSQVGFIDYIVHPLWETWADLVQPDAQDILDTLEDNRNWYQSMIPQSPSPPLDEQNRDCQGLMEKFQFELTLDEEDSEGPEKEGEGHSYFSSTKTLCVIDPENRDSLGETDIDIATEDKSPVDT

For `NC(=O)c1cnc(-c2ccccc2)nc1Nc1ccc(CC(=O)O)cc1`, the IC50 was 690 nM in the data set on Splenocyte and 200 nM in [1].

Regarding `O=C(O)Cc1ccc(Nc2nc(-c3ccccc3)ncc2C(=O)NO)cc1`, the inhibition in data set [2] came out at 42%.

For `CC(C)(C)CNC(=O)Cc1ccc(Nc2nc(N3CCCC3)ncc2C(N)=O)cc1`, the IC50 in the data set on Splenocyte amounted to 3.8 nM; in data set [1], 13 nM.

As to `CN(C)C(=O)c1cnc(-c2ccccc2)nc1Nc1ccc(CC(=O)O)cc1`, the inhibition in [3] was determined as 8%.

For the molecule `NC(=O)c1cnc(-c2ccccc2)nc1Nc1ccc(CC(=O)NO)cc1`, the IC50 with Splenocyte stood at 43 nM; in data set [1], 7.1 nM.

Take `NC(=O)Cc1ccc(Nc2nc(-c3ccccc3)ncc2C(N)=O)cc1`: the IC50 in the data set on Splenocyte is 74 nM; in data set [1], 120 nM.

For the molecule `O=C(Nc1c(Cl)cncc1Cl)c1ccc(OC(F)F)c(OCC2CC2)c1` [ROFLUMILAST], the inhibition in vivo at 1 mg/kg with Mus musculus [4] was 47%. This molecule also returned an IC50 with Splenocyte of 1.2 nM.

As to `CC(C)(C)CNC(=O)Cc1ccc(Nc2nc(-c3ccc4[nH]ccc4c3)ncc2C(N)=O)cc1`, the IC50 in the data set with Splenocyte came to 840 nM; in data set [1], 8.2 nM.

Consider `CC(C)(C)CNC(=O)Cc1ccc(Nc2nc(-c3cccnc3)ncc2C(N)=O)cc1`, for which the values for the IC50 (with Splenocyte; in data set [1]) were 23 nM and 29 nM, respectively.

For `CNC(=O)c1cnc(-c2ccccc2)nc1Nc1ccc(CC(=O)O)cc1`, in data set [1], the 50% inhibitory concentration (IC50) was 8200 nM.

Molecule `CC(C)(C)CNC(=O)Cc1ccc(Nc2nc(-c3ccccc3)ncc2C(N)=O)cc1` displayed a Cmax in data set [5] of 1490 ng/mL. The half-life in [6] is 192 min. The molecule further returned an AUC in data set [7] of 3990 ng·h/mL. In addition, the ED50 in the data set with Mus musculus [8] was found to be 16 mg/kg. The remaining at 0.5 h in data set [9] amounted to 52%. Moreover, in [10], the logD stood at 4.9. Also, the IC50 in the data set on Splenocyte was determined as 3 nM; in [1], 8.3 nM.

`CS(=O)(=O)NC(=O)Cc1ccc(Nc2nc(-c3ccccc3)ncc2C(N)=O)cc1`: the figures for the IC50 (with Splenocyte; in data set [1]) were 4800 nM and 490 nM, respectively.

As for `NC(=O)c1cnc(-c2ccccc2)nc1Nc1ccc(CC(=O)NCC2CC2)cc1`, the results for the IC50 (in the data set on Splenocyte; in data set [1]) were 18 nM and 16 nM, respectively.

Consider `CC(C)(C)NC(=O)Cc1ccc(Nc2nc(-c3ccccc3)ncc2C(N)=O)cc1`, for which the results for the IC50 (in the data set with Splenocyte; in data set [1]) were 49 nM and 110 nM, respectively.

Regarding `CC(C)CNC(=O)Cc1ccc(Nc2nc(-c3ccccc3)nc3c2C(=O)NCC3)cc1`, in the data set with Mus musculus [4], the inhibition in vivo at 1 mg/kg stood at 41%. Moreover, the IC50 with Splenocyte is 0.21 nM; in data set [1], 7.3 nM.

With `CC(C)(C)CNC(=O)Cc1ccc(Nc2nc(-c3cncnc3)ncc2C(N)=O)cc1`, in data set [1], the IC50 was 110 nM.

On to `Cc1nc(-c2ccccc2)nc(Nc2ccc(CC(=O)O)cc2)c1C(N)=O`, for which, in data set [1], the IC50 was 4000 nM.

With `CC(C)(C)CNC(=O)Cc1ccc(Nc2nc(NN3CCCCC3)ncc2C(N)=O)cc1`, the IC50 in data set [1] came to 6500 nM.

With `CSc1nc(-c2ccccc2)nc(Nc2ccc(CC(=O)O)cc2)c1C(N)=O`, the IC50 in data set [1] amounted to 2000 nM.

On to `C=C(C)c1ncc(C(N)=O)c(Nc2ccc(CC(=O)NCC(C)(C)C)cc2)n1`, for which the IC50 was 9.6 nM with Splenocyte and 3.7 nM in [1].

In the case of `CC(C)CNC(=O)Cc1ccc(Nc2nc(-c3ccccc3)ncc2C(N)=O)cc1`, the IC50 in the data set with Splenocyte stood at 12 nM; in [1], 11 nM.

Regarding `O=C(O)Cc1ccc(Nc2nc(-c3ccccc3)nc3c2C(=O)NCC3)cc1`, the IC50 is 460 nM with Splenocyte and 47 nM in [1].

For the molecule `CC(C)(C)CNC(=O)Cc1ccc(Nc2nc(-c3ccsc3)ncc2C(N)=O)cc1`, the inhibition in [11] was 18%.

Take `CN(C)c1ncc(C(N)=O)c(Nc2ccc(CC(=O)NCC(C)(C)C)cc2)n1`: the IC50 in the data set with Splenocyte was found to be 7.1 nM; in data set [1] it was 16 nM.

In the case of `CCCNC(=O)Cc1ccc(Nc2nc(-c3ccccc3)ncc2C(N)=O)cc1`, the IC50 with Splenocyte stood at 47 nM; in data set [1] it was 120 nM.

With `CC(C)(C)CNC(=O)Cc1ccc(Nc2nc(-c3ccoc3)ncc2C(N)=O)cc1`, the IC50 in the data set on Splenocyte is 1000 nM; in data set [1], 11 nM.
